Here are results for 4 molecules from ChEMBL document CHEMBL3044875, “Synthesis and antimicrobial activity of some bisoctahydroxanthene-1,8-dione derivatives” (2011).

The source made the active and inactive calls. No cut-off for these calls is given here.

Experiment [1] deals with Bacillus cereus. In words: Antibacterial activity against Bacillus cereus NRRL 3711 at 10 ug/disk after 24 hr by disk diffusion method. Conditions: NRRL 3711, 24 h, read-out: DIZ. It is filed as functional.
The subject of experiment [2] is Staphylococcus epidermidis. As to the kind of experiment: Antibacterial activity against Staphylococcus epidermidis ATCC 12228 at 10 ug/disk after 24 hr by disk diffusion method. It counts as functional. Conditions: ATCC 12228, 24 h, read-out: DIZ.
The test system of experiment [3] is Pseudomonas aeruginosa. As to the kind of experiment: Antibacterial activity against Pseudomonas aeruginosa ATCC 27853 at 10 ug/disk after 24 hr by disk-diffusion method. It counts as functional. Conditions: ATCC 27853, 24 h, read-out: DIZ.
The test system of experiment [4] is Staphylococcus aureus. As to the kind of experiment: Antibacterial activity against Staphylococcus aureus ATCC 25923 at 10 ug/disc after 24 hr by disk diffusion method. It counts as functional. Conditions: ATCC 25923, 24 h, read-out: DIZ.
The test system of experiment [5] is Proteus vulgaris. As to the kind of experiment: Antibacterial activity against Proteus vulgaris NRRL-B-123 at 10 ug/disk after 24 hr by disk diffusion method. Conditions: NRRL-B-123, 24 h, read-out: DIZ. It counts as functional.
In experiment [6] the test system is Escherichia coli. In words: Antibacterial activity against Escherichia coli ATCC 25922 at 10 ug/disk after 24 hr by disk-diffusion method. It counts as functional. Conditions: ATCC 25922, 24 h, read-out: DIZ.
Experiment [7] has as its system Nocardia. As to the kind of experiment: Antibacterial activity against Nocardia canis at 10 ug/disk after 24 hr by disk diffusion method. It counts as functional. Conditions: read-out: DIZ.
The test system of experiment [8] is Staphylococcus epidermidis. As to the kind of experiment: Antibacterial activity against Staphylococcus epidermidis ATCC 12228 at 20 ug/disk after 24 hr by disk diffusion method. It counts as functional, organism-based.
Experiment [9] relates to Pseudomonas aeruginosa. In words: Antibacterial activity against Pseudomonas aeruginosa ATCC 27853 at 20 ug/disk after 24 hr by disk-diffusion method. It is filed as functional, organism-based.
The test system of experiment [10] is Aspergillus niger. In words: Antifungal activity against Aspergillus niger ATCC 10949 at 20 ug/disk after 72 hr by disk diffusion method. It is filed as functional, organism-based.
In experiment [11] the test system is Candida albicans. As to the kind of experiment: Antifungal activity against Candida albicans ATCC 10231 at 40 ug/disk after 48 hr by disk-diffusion method. It is filed as functional.
The test system of experiment [12] is Bacillus cereus. In words: Antibacterial activity against Bacillus cereus NRRL 3711 at 40 ug/disk after 24 hr by disk diffusion method. It counts as functional.
The subject of experiment [13] is Bacillus cereus. As to the kind of experiment: Antibacterial activity against Bacillus cereus NRRL 3711 at 20 ug/disk after 24 hr by disk diffusion method. It is filed as functional.
Experiment [14] has as its system Bacillus cereus. In words: Antibacterial activity against Bacillus cereus NRRL 3711 at 140 ug/disk after 24 hr by disk diffusion method. It counts as functional.
The subject of experiment [15] is Pseudomonas aeruginosa. In words: Antibacterial activity against Pseudomonas aeruginosa ATCC 27853 at 40 ug/disk after 24 hr by disk-diffusion method. It is filed as functional, organism-based.
Experiment [16] concerns Staphylococcus epidermidis. In words: Antibacterial activity against Staphylococcus epidermidis ATCC 12228 at 40 ug/disk after 24 hr by disk diffusion method. It is filed as functional.
Experiment [17] relates to Staphylococcus epidermidis. In words: Antibacterial activity against Staphylococcus epidermidis ATCC 12228 at 140 ug/disk after 24 hr by disk diffusion method. It is filed as functional.
Experiment [18] concerns Staphylococcus aureus. In words: Antibacterial activity against Staphylococcus aureus ATCC 25923 at 140 ug/disc after 24 hr by disk diffusion method. It counts as functional.
Experiment [19] concerns Escherichia coli. In words: Antibacterial activity against Escherichia coli ATCC 25922 at 140 ug/disk after 24 hr by disk-diffusion method. It is filed as functional.
Experiment [20] deals with Proteus vulgaris. As to the kind of experiment: Antibacterial activity against Proteus vulgaris NRRL-B-123 at 40 ug/disk after 24 hr by disk diffusion method. It is filed as functional, organism-based.
Experiment [21] has as its system Nocardia. In words: Antibacterial activity against Nocardia canis at 40 ug/disk after 24 hr by disk diffusion method. It counts as functional.
The subject of experiment [22] is Staphylococcus aureus. As to the kind of experiment: Antibacterial activity against Staphylococcus aureus ATCC 25923 at 40 ug/disc after 24 hr by disk diffusion method. It counts as functional.
Experiment [23] concerns Candida albicans. As to the kind of experiment: Antifungal activity against Candida albicans ATCC 10231 at 140 ug/disk after 48 hr by disk-diffusion method. It is filed as functional.
Experiment [24] relates to Staphylococcus aureus. In words: Antibacterial activity against Staphylococcus aureus ATCC 25923 at 20 ug/disc after 24 hr by disk diffusion method. It counts as functional.
Experiment [25] concerns Pseudomonas aeruginosa. In words: Antibacterial activity against Pseudomonas aeruginosa ATCC 27853 at 140 ug/disk after 24 hr by disk-diffusion method. It is filed as functional, organism-based.
The subject of experiment [26] is Escherichia coli. As to the kind of experiment: Antibacterial activity against Escherichia coli ATCC 25922 at 20 ug/disk after 24 hr by disk-diffusion method. It counts as functional.
In experiment [27] the test system is Aspergillus niger. In words: Antifungal activity against Aspergillus niger ATCC 10949 at 140 ug/disk after 72 hr by disk diffusion method. It is filed as functional.
Experiment [28] deals with Rhodotorula mucilaginosa. As to the kind of experiment: Antifungal activity against Rhodotorula mucilaginosa at 140 ug/disk after 48 hr by disk diffusion method. It is filed as functional.
Experiment [29] has as its system Escherichia coli. As to the kind of experiment: Antibacterial activity against Escherichia coli ATCC 25922 at 40 ug/disk after 24 hr by disk-diffusion method. It is filed as functional.
In experiment [30] the test system is Rhodotorula mucilaginosa. As to the kind of experiment: Antifungal activity against Rhodotorula mucilaginosa at 40 ug/disk after 48 hr by disk diffusion method. It counts as functional.
In experiment [31] the test system is Proteus vulgaris. In words: Antibacterial activity against Proteus vulgaris NRRL-B-123 at 140 ug/disk after 24 hr by disk diffusion method. It counts as functional, organism-based.
Experiment [32] has as its system Aspergillus niger. As to the kind of experiment: Antifungal activity against Aspergillus niger ATCC 10949 at 40 ug/disk after 72 hr by disk diffusion method. It is filed as functional, organism-based.
In experiment [33] the test system is Rhodotorula mucilaginosa. In words: Antifungal activity against Rhodotorula mucilaginosa at 20 ug/disk after 48 hr by disk diffusion method. It counts as functional.
Experiment [34] has as its system Nocardia. In words: Antibacterial activity against Nocardia canis at 20 ug/disk after 24 hr by disk diffusion method. It is filed as functional, organism-based.
The subject of experiment [35] is Candida albicans. As to the kind of experiment: Antifungal activity against Candida albicans ATCC 10231 at 20 ug/disk after 48 hr by disk-diffusion method. It counts as functional.
For experiment [36], the system named is Proteus vulgaris. As to the kind of experiment: Antibacterial activity against Proteus vulgaris NRRL-B-123 at 20 ug/disk after 24 hr by disk diffusion method. It counts as functional, organism-based.
For experiment [37], the system named is Nocardia. As to the kind of experiment: Antibacterial activity against Nocardia canis at 140 ug/disk after 24 hr by disk diffusion method. It is filed as functional.
Experiment [38] has as its system Rhodotorula mucilaginosa. In words: Antifungal activity against Rhodotorula mucilaginosa at 100 U/disk after 48 hr by disk diffusion method. It counts as functional, organism-based.
Setting [39] is: ATCC 10231, 48 h, read-out: DIZ.

On to `CN(C)[C@@H]1C(O)=C(C(N)=O)C(=O)[C@@]2(O)C(O)=C3C(=O)c4c(O)cccc4[C@@](C)(O)[C@H]3C[C@@H]12` [TETRACYCLINE], for which the zone of inhibition at 10 µg/disc in the experiment with Bacillus cereus [1] is 28 mm; in experiment [2], 15 mm; with Pseudomonas aeruginosa [3], 13 mm; in the experiment with Staphylococcus aureus [4], 40 mm; in the experiment on Proteus vulgaris [5], 15 mm; in the experiment with Escherichia coli [6] it was 25 mm. Further, the zone of inhibition at 10 µg/disc with Nocardia [7] amounted to 14 mm.

In the case of `O=C1CC(c2ccccc2)CC2=C1C(c1cccc(C3C4=C(CC(c5ccccc5)CC4=O)OC4=C3C(=O)CC(c3ccccc3)C4)c1)C1=C(CC(c3ccccc3)CC1=O)O2` (stereo not drawn), the “diameter of the inhibition zone (DIZ)” value (in experiment [8]; in the experiment on Pseudomonas aeruginosa [9]; in the experiment on Aspergillus niger [10]; in the experiment with Pseudomonas aeruginosa [15]; in experiment [16]; in [17]) was “inactive” throughout. Further, the “diameter of the inhibition zone (DIZ)” value in the experiment on Staphylococcus aureus [18], with Escherichia coli [19], with Proteus vulgaris [20], with Nocardia [21], with Staphylococcus aureus [22] and in the experiment with Staphylococcus aureus [24] was “inactive” throughout. Besides, the “diameter of the inhibition zone (DIZ)” value with Pseudomonas aeruginosa [25], with Escherichia coli [26], with Aspergillus niger [27], in the experiment on Escherichia coli [29], with Rhodotorula mucilaginosa [30] and in the experiment with Proteus vulgaris [31] was “inactive” each time. For the same molecule, the “diameter of the inhibition zone (DIZ)” value in the experiment on Aspergillus niger [32], with Rhodotorula mucilaginosa [33], in the experiment on Nocardia [34], in the experiment on Proteus vulgaris [36] and in the experiment with Nocardia [37] was “inactive” throughout. Also, the zone of inhibition at 40 µg/disc in the experiment on Candida albicans [11] (setting [39]) came to 8 mm; in the experiment on Bacillus cereus [12] (NRRL 3711, 24 h, read-out: DIZ), 11 mm. Besides, the zone of inhibition at 20 µg/disc amounted to 8 mm in the experiment on Bacillus cereus [13] (NRRL 3711, 24 h, read-out: DIZ) and 7 mm in the experiment on Candida albicans [35] (setting [39]). The zone of inhibition at 140 µg/disc in the experiment with Bacillus cereus [14] (NRRL 3711, 24 h, read-out: DIZ) turned out to be 12 mm; with Candida albicans [23] (setting [39]), 8 mm; in the experiment on Rhodotorula mucilaginosa [28] (read-out: DIZ), 7 mm.

For `CC1(C)CCC2=C(C1=O)C(c1ccc(C3C4=C(CCC(C)(C)C4=O)OC4=C3C(=O)C(C)(C)CC4)cc1)C1=C(CCC(C)(C)C1=O)O2`, the “diameter of the inhibition zone (DIZ)” value (in [8]; with Pseudomonas aeruginosa [9]; in the experiment with Aspergillus niger [10]; in the experiment with Candida albicans [11]; in the experiment on Bacillus cereus [12]; with Bacillus cereus [13]) was “inactive” each time. Also, the “diameter of the inhibition zone (DIZ)” value (with Bacillus cereus [14]; in the experiment with Pseudomonas aeruginosa [15]; in experiment [16]; in experiment [17]; in the experiment with Staphylococcus aureus [18]; with Escherichia coli [19]) was “inactive” each time. Also, the “diameter of the inhibition zone (DIZ)” value in the experiment on Proteus vulgaris [20], with Nocardia [21], with Staphylococcus aureus [22], in the experiment with Candida albicans [23], in the experiment with Staphylococcus aureus [24] and in the experiment on Pseudomonas aeruginosa [25] was “inactive” throughout. For the same molecule, the “diameter of the inhibition zone (DIZ)” value in the experiment with Escherichia coli [26], in the experiment with Rhodotorula mucilaginosa [28], in the experiment with Escherichia coli [29], in the experiment with Rhodotorula mucilaginosa [30], in the experiment with Proteus vulgaris [31] and in the experiment on Aspergillus niger [32] was “inactive” each time. The “diameter of the inhibition zone (DIZ)” value in the experiment with Rhodotorula mucilaginosa [33], in the experiment on Nocardia [34], in the experiment with Candida albicans [35], in the experiment with Proteus vulgaris [36] and in the experiment with Nocardia [37] was “inactive” in each case. Besides, in the experiment on Aspergillus niger [27] (ATCC 10949, 72 h, read-out: DIZ), the zone of inhibition at 140 µg/disc was 7 mm.

Consider NYSTATIN, for which, in the experiment on Rhodotorula mucilaginosa [38], the inhibition zone (IZ) came to 21 mm.
